# Measurements: patent publication US6844347B1, “Substituted 4-amino-2aryl-pyrimidines, their production and use and pharmaceutical preparations containing same” (Aventis Pharma Deutschland GmbH, priority 1998, dated 2005)
# Biological target: T1, soluble guanylate cyclase (sGC) (Bos taurus, UniProt P16068+P19687)
# T1 construct: The sGC employed had been isolated from bovine lung; from tissue; host or cells: bovine lung
# T1 sequence (P19687 1-691): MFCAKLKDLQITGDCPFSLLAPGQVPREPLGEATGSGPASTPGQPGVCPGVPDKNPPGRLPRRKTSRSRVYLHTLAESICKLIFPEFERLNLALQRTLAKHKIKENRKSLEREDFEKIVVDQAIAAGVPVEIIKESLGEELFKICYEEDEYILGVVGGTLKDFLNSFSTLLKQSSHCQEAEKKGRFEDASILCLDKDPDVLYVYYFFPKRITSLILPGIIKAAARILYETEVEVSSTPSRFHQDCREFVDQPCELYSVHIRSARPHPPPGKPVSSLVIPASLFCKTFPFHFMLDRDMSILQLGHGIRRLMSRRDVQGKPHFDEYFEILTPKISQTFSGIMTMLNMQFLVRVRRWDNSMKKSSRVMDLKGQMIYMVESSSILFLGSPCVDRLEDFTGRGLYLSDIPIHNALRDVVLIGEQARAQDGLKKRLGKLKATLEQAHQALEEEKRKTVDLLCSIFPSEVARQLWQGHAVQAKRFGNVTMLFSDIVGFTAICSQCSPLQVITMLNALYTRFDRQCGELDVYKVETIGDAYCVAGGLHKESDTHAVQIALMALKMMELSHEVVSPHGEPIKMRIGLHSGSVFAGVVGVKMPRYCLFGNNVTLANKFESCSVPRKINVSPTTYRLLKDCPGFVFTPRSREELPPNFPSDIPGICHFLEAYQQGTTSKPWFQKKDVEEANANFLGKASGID
# T1 sequence (P16068 1-619): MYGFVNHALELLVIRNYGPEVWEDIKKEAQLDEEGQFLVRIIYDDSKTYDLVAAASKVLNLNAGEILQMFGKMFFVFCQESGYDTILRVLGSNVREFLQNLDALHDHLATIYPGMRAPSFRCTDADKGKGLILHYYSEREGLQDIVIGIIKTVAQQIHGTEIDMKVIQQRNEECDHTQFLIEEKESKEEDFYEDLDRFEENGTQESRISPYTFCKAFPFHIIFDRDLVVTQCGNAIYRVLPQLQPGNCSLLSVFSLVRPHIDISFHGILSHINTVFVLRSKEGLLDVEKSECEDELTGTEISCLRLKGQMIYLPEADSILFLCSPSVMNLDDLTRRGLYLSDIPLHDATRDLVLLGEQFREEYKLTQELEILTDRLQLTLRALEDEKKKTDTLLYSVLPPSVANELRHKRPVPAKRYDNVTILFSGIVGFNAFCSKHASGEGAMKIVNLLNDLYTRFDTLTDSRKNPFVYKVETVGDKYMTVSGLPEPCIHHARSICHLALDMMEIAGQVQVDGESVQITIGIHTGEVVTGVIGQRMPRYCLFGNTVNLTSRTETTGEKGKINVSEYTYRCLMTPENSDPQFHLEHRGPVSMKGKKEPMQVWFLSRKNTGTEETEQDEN
# Test: Activation of soluble guanylate cyclase (cGMP enzyme immunoassay)
# Format: biochemical
# Settings: test substance 50 μM; sGC isolated from bovine lung; [cGMP]test substance/[cGMP]control (basal activity with solvent); 37° C., 15 to 20 minutes
# Protocol: The activation of soluble guanylate cyclase (sGC), which catalyzes the conversion of guanosine triphosphate (GTP) to cyclic guanosine monophosphate (cGMP) and pyrophosphate, by the compounds according to the invention was quantified with the aid of an enzyme immunoassay (EIA) from Amersham. For this, the test substances were first incubated with sGC in microtiter plates and then the quantity of the resulting cGMP was determined.
# The sGC employed had been isolated from bovine lung (see Methods in Enzymology, Volume 195, p. 377). The test solutions (100 μl per well) contained 50 mM triethanolamine (TEA) buffer (pH 7.5), 3 mM MgCl2, 3 mM reduced glutathione (GSH), 0.1 mM GTP, 1 mM 3-isobutyl-1-methylxanthine (IBMX), suitably diluted enzyme solution and the test substance or, in the control experiments, solvent. The test substances were dissolved in dimethyl sulfoxide (DMSO) and the solution was diluted with DMSO/water such that the final concentration c of test substance in the test batch was 50 μM. The DMSO concentration in the test batch was 5% (v/v). The reaction was started by addition of the sGC. The reaction mix was incubated at 37° C. for 15 to 20 minutes and then stopped by ice-cooling and addition of the stop reagent (50 mM EDTA, pH 8.0). An aliquot of 50 μl was taken and employed for the determination of the cGMP content using the acetylation protocol of the Amersham cGMP EIA kit. The absorption of the samples was measured at 450 nm (reference wavelength 620 nm) in a microtiter plate reading apparatus. The cGMP concentration was determined by means of a calibration curve, which was obtained under the same experimental conditions. The activation of the sGC by a test substance is indicated as n-fold stimulation of the basal enzyme activity which was found in the control experiments (with solvent instead of test substance) (calculated according to the formula n-fold stimulation=[cGMP]test substance/[cGMP]control).
row,Structure (SMILES),n-fold stimulation at c = 50 μM [n-fold]
1,Cc1ccc(-c2nc(NC3CCC(O)CC3)cc(C(C)C)n2)cc1 (stereo not drawn) [Example 25],28
2,CC(C)c1cc(N2CCC(C(N)=O)CC2)nc(-c2ccc(Cl)cc2)n1 [Example 44],>4
3,CC(C)(C)c1cc(N2CCOCC2)nc(-c2ccc(Cl)cc2)n1 [Example 52],>8
4,CC(C)(C)c1cc(N2CCSCC2)nc(-c2ccc(Cl)cc2)n1 [Example 66],>4
5,CCCN(CCC)c1cc(-c2ccccc2)nc(-c2ccc(Cl)cc2)n1 [Example 69],>4
6,CC(C)c1cc(NC2CCC(O)CC2)nc(-c2cc(Cl)cc(Cl)c2)n1 (stereo not drawn) [Example 77],30
7,CCCCNc1cc(C(C)C)nc(-c2cc(Cl)cc(Cl)c2)n1.Cl [Example 79],>4
8,CC(C)c1cc(N2CCOCC2)nc(-c2cc(Cl)cc(Cl)c2)n1 [Example 81],>4
9,CC(C)c1cc(N2CCSCC2)nc(-c2cc(Cl)cc(Cl)c2)n1 [Example 82],>4
10,Cc1ccc(-c2nc(C(C)C)cc(N3CCOCC3)n2)cc1 [Example 89],>8
11,Cc1ccc(-c2nc(C(C)C)cc(N3CCSCC3)n2)cc1 [Example 90],>16
12,Cc1ccc(-c2nc(C(C)C)cc(N3C[C@@H](C)O[C@@H](C)C3)n2)cc1 [Example 97],>16
13,Cc1ccc(-c2nc(C(C)C)cc(N3CCC(C(N)=O)CC3)n2)cc1 [Example 99],>4
14,Cc1ccc(-c2nc(C(C)C)cc(N3CCCCCC3)n2)cc1 [Example 100],>8
15,Clc1ccc(-c2nc(-c3ccccc3)cc(N3CCCCCC3)n2)cc1 [Example 112],>8
16,CC(C)c1cc(N[C@H]2CC[C@H](O)CC2)nc(-c2ccc(Cl)cc2)n1 [Example 125],32
17,CC(C)(C)c1cc(N[C@H]2CC[C@H](O)CC2)nc(-c2ccc(Cl)cc2)n1 [Example 133],>16

# Continued, values first:
row,n-fold stimulation at c = 50 μM [n-fold],Structure (SMILES)
1,>8,COCCCNc1cc(C(C)C)nc(-c2ccc(C)cc2)n1 [Example 23]
2,>4,CC(C)c1cc(N2CCCC2)nc(-c2ccc(Cl)cc2)n1.Cl [Example 29]
3,>4,CC(C)c1cc(N2CCSCC2)nc(-c2ccc(Cl)cc2)n1.Cl [Example 30]
4,>4,CCCCNc1cc(C(C)C)nc(-c2ccc(Cl)cc2)n1 [Example 32]
5,>16,CCN(CC)c1cc(C(C)C)nc(-c2ccc(Cl)cc2)n1 [Example 33]
6,>4,CCCCN(CCCC)c1cc(C(C)C)nc(-c2ccc(Cl)cc2)n1.Cl [Example 34]
7,>16,CCCN(CCC)c1cc(C(C)C)nc(-c2ccc(Cl)cc2)n1.Cl [Example 35]
8,>8,C=CCN(CC=C)c1cc(C(C)C)nc(-c2ccc(Cl)cc2)n1 [Example 36]
9,>8,CC(C)c1cc(N2CCCCCC2)nc(-c2ccc(Cl)cc2)n1 [Example 38]
10,>4,CCN(Cc1ccccc1)c1cc(C(C)C)nc(-c2ccc(Cl)cc2)n1 [Example 43]
11,>4,CC(C)c1cc(N2CCSC2)nc(-c2ccc(Cl)cc2)n1 [Example 45]
12,>4,CCN(CC)c1cc(-c2ccccc2)nc(-c2ccc(Cl)cc2)n1 [Example 63]
13,>16,CCN(CC)c1cc(C(C)C)nc(-c2cc(Cl)cc(Cl)c2)n1 [Example 80]
14,>16,CCCN(CCC)c1cc(C(C)C)nc(-c2cc(Cl)cc(Cl)c2)n1 [Example 84]
15,>16,CCCN(CCC)c1cc(C(C)C)nc(-c2ccc(C)cc2)n1 [Example 85]
16,>16,CCN(CC)c1cc(C(C)C)nc(-c2ccc(C)cc2)n1.Cl [Example 86]
17,>8,CCCCNc1cc(C(C)C)nc(-c2ccc(C)cc2)n1 [Example 88]
18,>8,COCCN(CCOC)c1cc(C(C)C)nc(-c2ccc(C)cc2)n1 [Example 98]
19,>16,CC(C)c1cc(NC2CCCC2)nc(-c2ccc(Cl)cc2)n1 [Example 124]
20,>16,CC(C)c1cc(NCCCCO)nc(-c2ccc(Cl)cc2)n1 [Example 137]

# Tested on: not given
# Test: not given
# Settings: not given
row,Structure (SMILES),melting point [°C]
1,"Cc1ccc(-c2nc(C(C)C)cc(N3CC[S+]([O-])CC3)n2)cc1 [Example 148, 6-Isopropyl-2-(4-methylphenyl)-4-(1-oxothiomorpholino)pyrimidine]",152
2,"CC(C)c1cc(N2CC[S+]([O-])CC2)nc(-c2cc(Cl)cc(Cl)c2)n1 [Example 149, 2-(3,5-dichlorophenyl)-6-isopropyl-4-(1-oxothiomorpholino)pyrimidine]",187

# Second part, the compound after the results:
row,melting point [°C],Structure (SMILES)
1,226,"CC(C)c1cc(N2CCS(=O)(=O)CC2)nc(-c2ccc(Cl)cc2)n1 [Example 145, 2-(4-Chlorophenyl)-6-isopropyl-4-(1,1-dioxothiomorpholino)pyrimidine]"
2,128,"CC(C)c1cc([SH]2(=O)CCNC2)nc(-c2ccc(Cl)cc2)n1 [Example 146, 2-(4-Chlorophenyl)6-isopropyl-4-(1-oxo-1,3-thiazolidin-1-yl)pyrimidine]"
3,103,"CC[S+]([O-])CCNc1cc(C(C)C)nc(-c2ccc(Cl)cc2)n1 (stereo not drawn) [Example 147, 2-(4-Chlorophenyl)-4-((2-ethylsulfinylethyl)amino)-6-isopropylpyrimidine]"
